Tests used:
[1] = tested on: P-388 lymphocytic leukemia cells; test: cytotoxicity, cell culture assay using P-388 lymphocytic leukemia cells, compared with taxol; type: cell-based; details: for ED50 /ED50 (taxol): P-388 leukemia, value of less than 1 = more active than taxol; for biological activity as compared with taxol (in words): P-388 cell culture assay; for antineoplastic activity relative to taxol, cell culture assay (P-388 leukemia in vitro): fold activity versus taxol
Source text: Acylation of 22 with various aromatic carboxylic acids in the presence of dicyclohexylcarbodiimide and 4-pyrrolidinopyridine has led to the preparation of various 2-debenzoyl-2-acyl taxols 13. […] For details of the cell culture assay, see Abbott, B. J., "Protocol 14 of Instruction 275," National Cancer Institute, National Institutes of Health, Jan. 24, 1978.

[2] = tested on: ovarian cancer and breast cancer; details: cited from earlier work
[3] = tested on: non-small cell lung cancer; details: preliminary studies; cited from earlier work

SMILES	ED50 /ED50 (taxol) [1]	further results
CC(=O)O[C@H]1C(=O)[C@@]2(C)[C@H]([C@H](OC(=O)c3cccc(N)c3)[C@]3(O)C[C@H](OC(=O)[C@H](O)[C@@H](NC(=O)c4ccccc4)c4ccccc4)C(C)=C1C3(C)C)[C@]1(OC(C)=O)CO[C@@H]1C[C@@H]2O [Compound 13a]	1500	–
CC(=O)O[C@H]1C(=O)[C@@]2(C)[C@H]([C@H](OC(=O)c3ccc(C#N)cc3)[C@]3(O)C[C@H](OC(=O)[C@H](O)[C@@H](NC(=O)c4ccccc4)c4ccccc4)C(C)=C1C3(C)C)[C@]1(OC(C)=O)CO[C@@H]1C[C@@H]2O [Compound 13aa]	30	–
CC(=O)O[C@H]1C(=O)[C@@]2(C)[C@H]([C@H](OC(=O)/C=C/c3ccccc3)[C@]3(O)C[C@H](OC(=O)[C@H](O)[C@@H](NC(=O)c4ccccc4)c4ccccc4)C(C)=C1C3(C)C)[C@]1(OC(C)=O)CO[C@@H]1C[C@@H]2O [Compound 13b]	10	biological activity as compared with taxol (in words) [1]: less active or about as active as taxol
CC(=O)O[C@H]1C(=O)[C@@]2(C)[C@H]([C@H](OC(=O)c3ccc(Cl)cc3)[C@]3(O)C[C@H](OC(=O)[C@H](O)[C@@H](NC(=O)c4ccccc4)c4ccccc4)C(C)=C1C3(C)C)[C@]1(OC(C)=O)CO[C@@H]1C[C@@H]2O [Compound 13bb]	150	–
CC(=O)O[C@H]1C(=O)[C@@]2(C)[C@H]([C@H](OC(=O)c3cccc([N+](=O)[O-])c3)[C@]3(O)C[C@H](OC(=O)[C@H](O)[C@@H](NC(=O)c4ccccc4)c4ccccc4)C(C)=C1C3(C)C)[C@]1(OC(C)=O)CO[C@@H]1C[C@@H]2O [Compound 13c]	0.3	biological activity as compared with taxol (in words) [1]: much greater biological activity than taxol
CSc1ccc(C(=O)O[C@H]2[C@@H]3[C@]4(OC(C)=O)CO[C@@H]4C[C@H](O)[C@@]3(C)C(=O)[C@H](OC(C)=O)C3=C(C)[C@@H](OC(=O)[C@H](O)[C@@H](NC(=O)c4ccccc4)c4ccccc4)C[C@]2(O)C3(C)C)cc1 [Compound 13cc]	12	–
CC(=O)OC1C(=O)C2(C)C(O)CC3OCC3(OC(C)=O)C2C(OC(=O)c2cccc(Cl)c2)C2(O)CC(OC(=O)C(O)C(NC(=O)c3ccccc3)c3ccccc3)C(C)=C1C2(C)C (stereo not drawn) [Compound 13d]	0.1	biological activity as compared with taxol (in words) [1]: much greater biological activity than taxol
CC(=O)O[C@H]1C(=O)[C@@]2(C)[C@H]([C@H](OC(=O)c3ccc([N+](=O)[O-])cc3)[C@]3(O)C[C@H](OC(=O)[C@H](O)[C@@H](NC(=O)c4ccccc4)c4ccccc4)C(C)=C1C3(C)C)[C@]1(OC(C)=O)CO[C@@H]1C[C@@H]2O [Compound 13dd]	8.3	–
CC(=O)OC1C(=O)C2(C)C(O)CC3OCC3(OC(C)=O)C2C(OC(=O)c2cc([N+](=O)[O-])cc([N+](=O)[O-])c2)C2(O)CC(OC(=O)C(O)C(NC(=O)c3ccccc3)c3ccccc3)C(C)=C1C2(C)C (stereo not drawn) [Compound 13e]	2.0	–
CC(=O)O[C@H]1C(=O)[C@@]2(C)[C@H]([C@H](OC(=O)c3ccc(C(F)(F)F)cc3)[C@]3(O)C[C@H](OC(=O)[C@H](O)[C@@H](NC(=O)c4ccccc4)c4ccccc4)C(C)=C1C3(C)C)[C@]1(OC(C)=O)CO[C@@H]1C[C@@H]2O [Compound 13ee]	30	–
CC(=O)O[C@H]1C(=O)[C@@]2(C)[C@H]([C@H](OC(=O)c3cccc(N=[N+]=[N-])c3)[C@]3(O)C[C@H](OC(=O)[C@H](O)[C@@H](NC(=O)c4ccccc4)c4ccccc4)C(C)=C1C3(C)C)[C@]1(OC(C)=O)CO[C@@H]1C[C@@H]2O [Compound 13f, 2-debenzoyl-2-(m-azidobenzoyl)taxol]	0.002	biological activity as compared with taxol (in words) [1]: much greater biological activity than taxol; antineoplastic activity relative to taxol, cell culture assay (P-388 leukemia in vitro) [1]: 500 times
CC(=O)O[C@H]1C(=O)[C@@]2(C)[C@H]([C@H](OC(=O)c3ccc(C(C)=O)cc3)[C@]3(O)C[C@H](OC(=O)[C@H](O)[C@@H](NC(=O)c4ccccc4)c4ccccc4)C(C)=C1C3(C)C)[C@]1(OC(C)=O)CO[C@@H]1C[C@@H]2O [Compound 13ff]	30	–
COc1cc(C(=O)O[C@H]2[C@@H]3[C@]4(OC(C)=O)CO[C@@H]4C[C@H](O)[C@@]3(C)C(=O)[C@H](OC(C)=O)C3=C(C)[C@@H](OC(=O)[C@H](O)[C@@H](NC(=O)c4ccccc4)c4ccccc4)C[C@]2(O)C3(C)C)cc(OC)c1OC [Compound 13g]	0.5	–
CC(=O)O[C@H]1C(=O)[C@@]2(C)[C@H]([C@H](OC(=O)c3cccc(C#N)c3)[C@]3(O)C[C@H](OC(=O)[C@H](O)[C@@H](NC(=O)c4ccccc4)c4ccccc4)C(C)=C1C3(C)C)[C@]1(OC(C)=O)CO[C@@H]1C[C@@H]2O [Compound 13h]	0.25	–
CC(=O)O[C@H]1C(=O)[C@@]2(C)[C@H]([C@H](OC(=O)c3cccc(C(F)(F)F)c3)[C@]3(O)C[C@H](OC(=O)[C@H](O)[C@@H](NC(=O)c4ccccc4)c4ccccc4)C(C)=C1C3(C)C)[C@]1(OC(C)=O)CO[C@@H]1C[C@@H]2O [Compound 13i]	15	–
CC(=O)O[C@H]1C(=O)[C@@]2(C)[C@H]([C@H](OC(=O)c3cccc(F)c3)[C@]3(O)C[C@H](OC(=O)[C@H](O)[C@@H](NC(=O)c4ccccc4)c4ccccc4)C(C)=C1C3(C)C)[C@]1(OC(C)=O)CO[C@@H]1C[C@@H]2O [Compound 13j]	0.35	–
CC(=O)OC1C(=O)C2(C)C(O)CC3OCC3(OC(C)=O)C2C(OC(=O)c2cccs2)C2(O)CC(OC(=O)C(O)C(NC(=O)c3ccccc3)c3ccccc3)C(C)=C1C2(C)C (stereo not drawn) [Compound 13k]	10	–
CC(=O)O[C@H]1C(=O)[C@@]2(C)[C@H]([C@H](OC(=O)c3ccc(Cl)c(Cl)c3)[C@]3(O)C[C@H](OC(=O)[C@H](O)[C@@H](NC(=O)c4ccccc4)c4ccccc4)C(C)=C1C3(C)C)[C@]1(OC(C)=O)CO[C@@H]1C[C@@H]2O [Compound 13m]	0.003	–
CC(=O)O[C@H]1C(=O)[C@@]2(C)[C@H]([C@H](OC(=O)c3cccc(C)c3)[C@]3(O)C[C@H](OC(=O)[C@H](O)[C@@H](NC(=O)c4ccccc4)c4ccccc4)C(C)=C1C3(C)C)[C@]1(OC(C)=O)CO[C@@H]1C[C@@H]2O [Compound 13n]	0.04	–
CC(=O)O[C@H]1C(=O)[C@@]2(C)[C@H]([C@H](OC(=O)c3ccccc3Cl)[C@]3(O)C[C@H](OC(=O)[C@H](O)[C@@H](NC(=O)c4ccccc4)c4ccccc4)C(C)=C1C3(C)C)[C@]1(OC(C)=O)CO[C@@H]1C[C@@H]2O [Compound 13o]	0.011	biological activity as compared with taxol (in words) [1]: increased bioactivity as compared with taxol
COc1cccc(C(=O)O[C@H]2[C@@H]3[C@]4(OC(C)=O)CO[C@@H]4C[C@H](O)[C@@]3(C)C(=O)[C@H](OC(C)=O)C3=C(C)[C@@H](OC(=O)[C@H](O)[C@@H](NC(=O)c4ccccc4)c4ccccc4)C[C@]2(O)C3(C)C)c1 [Compound 13p]	0.0004	–
CC(=O)O[C@H]1C(=O)[C@@]2(C)[C@H]([C@H](OC(=O)c3cccc(Oc4ccccc4)c3)[C@]3(O)C[C@H](OC(=O)[C@H](O)[C@@H](NC(=O)c4ccccc4)c4ccccc4)C(C)=C1C3(C)C)[C@]1(OC(C)=O)CO[C@@H]1C[C@@H]2O [Compound 13r]	4.3	–
CC(=O)O[C@H]1C(=O)[C@@]2(C)[C@H]([C@H](OC(=O)c3cccc(I)c3)[C@]3(O)C[C@H](OC(=O)[C@H](O)[C@@H](NC(=O)c4ccccc4)c4ccccc4)C(C)=C1C3(C)C)[C@]1(OC(C)=O)CO[C@@H]1C[C@@H]2O [Compound 13s]	0.028	–
CC(=O)O[C@H]1C(=O)[C@@]2(C)[C@H]([C@H](OC(=O)c3cc(F)cc(F)c3)[C@]3(O)C[C@H](OC(=O)[C@H](O)[C@@H](NC(=O)c4ccccc4)c4ccccc4)C(C)=C1C3(C)C)[C@]1(OC(C)=O)CO[C@@H]1C[C@@H]2O [Compound 13t, 2-debenzoyl-2-(3,5-difluorobenzoyl)taxol]	0.00004	antineoplastic activity relative to taxol, cell culture assay (P-388 leukemia in vitro) [1]: 25,000 times; antineoplastic activity relative to taxol, cell culture assay (P-388 leukemia in vitro) ([1]; listed as drawing 14): about 25,000 times
CC(=O)O[C@H]1C(=O)[C@@]2(C)[C@H]([C@H](OC(=O)c3ccc4ccccc4c3)[C@]3(O)C[C@H](OC(=O)[C@H](O)[C@@H](NC(=O)c4ccccc4)c4ccccc4)C(C)=C1C3(C)C)[C@]1(OC(C)=O)CO[C@@H]1C[C@@H]2O [Compound 13u]	10	–
CC(=O)O[C@H]1C(=O)[C@@]2(C)[C@H]([C@H](OC(=O)c3ccoc3)[C@]3(O)C[C@H](OC(=O)[C@H](O)[C@@H](NC(=O)c4ccccc4)c4ccccc4)C(C)=C1C3(C)C)[C@]1(OC(C)=O)CO[C@@H]1C[C@@H]2O [Compound 13v]	1.4	–
CC(=O)O[C@H]1C(=O)[C@@]2(C)[C@H]([C@H](OC(C)=O)[C@]3(O)C[C@H](OC(=O)[C@H](O)[C@@H](NC(=O)c4ccccc4)c4ccccc4)C(C)=C1C3(C)C)[C@]1(OC(C)=O)CO[C@@H]1C[C@@H]2O [Compound 13w]	28	–
CC(=O)O[C@H]1C(=O)[C@@]2(C)[C@H]([C@H](OC(=O)COc3ccccc3)[C@]3(O)C[C@H](OC(=O)[C@H](O)[C@@H](NC(=O)c4ccccc4)c4ccccc4)C(C)=C1C3(C)C)[C@]1(OC(C)=O)CO[C@@H]1C[C@@H]2O [Compound 13x]	0.7	–
CC(=O)O[C@H]1C(=O)[C@@]2(C)[C@H]([C@H](OC(=O)c3ccc(F)cc3)[C@]3(O)C[C@H](OC(=O)[C@H](O)[C@@H](NC(=O)c4ccccc4)c4ccccc4)C(C)=C1C3(C)C)[C@]1(OC(C)=O)CO[C@@H]1C[C@@H]2O [Compound 13y]	0.5	–
CC(=O)O[C@H]1C(=O)[C@@]2(C)[C@H]([C@H](OC(=O)c3ccccc3)[C@]3(O)C[C@H](OC(=O)[C@H](O)[C@@H](NC(=O)c4ccccc4)c4ccccc4)C(C)=C1C3(C)C)[C@]1(OC(C)=O)CO[C@@H]1C[C@@H]2O [Taxol]	–	clinical activity [2]: excellent clinical activity; clinical activity [3]: good activity

— patent US6002023A, “2-debenzoyl-2-acyl taxol derivatives and method for making same” (Virginia Tech Intellectural Properties, Inc., priority 1997, dated 1999)
